In patent US12636270B2, “Levothyroxine liquid formulations” (Fresenius Kabi USA, LLC, priority 2016, dated 2026):
Like-named read-outs stand apart in the source and are kept apart here.

Columns and labels:
[1] = tromethamine 10 mg/mL, normal saline
Protocol: (§1) The HPLC conditions were as follows: • Column: Waters […]™ C8 (5 μm, 4.6×150 mm) HPLC column • Mobile Phase A: Sodium heptanesulfonate/Acetonitrile/Water/Methanol/H3PO4 (4.023 g/800 mL/1600 mL/1600 mL/4 mL) • Mobile Phase B: Sodium heptanesulfonate/Acetonitrile/Water/Methanol/H3PO4 (2.013 g/1000 mL/100 mL/900 mL/2 mL) • Diluent: 0.01 N NaOH • Column temperature: 25° C. • Flow rate: 1.5 mL/min • Injection volume: 40-200 μL • Autosampler temperature: 5° C. • Detection: UV at 225 nm • Separation mode: Gradient Gradient Program:
The effect of pH on levothyroxine stability was further tested in samples having a pH 9.5-11.5. Separate samples containing levothyroxine sodium at a concentration of 20 mcg/mL or 100 mcg/mL, tromethamine at a concentration of 10 mg/mL in normal saline were adjusted to various pH levels. 5 mL of each sample was filled into 10 cc amber tubing vials, and the vials were stoppered with 20 mm stoppers under nitrogen. The samples were stored at temperatures of 25° C., 40° C., and 55° C. The samples stored at 55° C. were analyzed by HPLC at 1 W and 2 W of storage. The samples stored at 25° C. and 40° C. were analyzed by HPLC at 2M of storage using the HPLC conditions described hereinabove.

[2] = 20 mcg/mL, tromethamine 10 mg/mL, normal saline
Protocol: Separate samples containing levothyroxine sodium at a concentration of 20 mcg/mL, tromethamine at a concentration of 10 mg/mL in normal saline (0.9% NaCl in water) were adjusted to various pH levels. One sample additionally contained hydroxypropyl (HP) β-cyclodextrin at a concentration of 10 mg/mL. 5 mL of each sample was filled into 10 cc amber tubing vials, and the vials were stoppered with 20 mm stoppers under nitrogen. The samples were stored at temperatures of 25° C., 40° C. and 55° C. The samples stored at 55° C. were analyzed by HPLC at 1 and 4 weeks (W) of storage. The samples stored at 40° C. were analyzed by HPLC at 4 W and 3 months (M) of storage. The samples stored at 25° C. were analyzed by HPLC at 3M of storage.
as §1, with “Program: […]” for “Program:”
The results for liothyronine, largest unknown impurity, and total impurities as determined by peak area percent are set forth in Table 1.

[3] = 25° C., 2 M, pH 10.4, 20 mcg/mL
[4] = 25° C., 2 M, pH 10.4, 100 mcg/mL
[5] = 25° C., 2 M, pH 11.5, 20 mcg/mL
[6] = 40° C., 2 M, pH 10.4, 20 mcg/mL
[7] = 40° C., 2 M, pH 10.4, 100 mcg/mL
[8] = 40° C., 2 M, pH 11.5, 20 mcg/mL
[9] = 55° C., 1 W, pH 10.4, 20 mcg/mL
[10] = 55° C., 1 W, pH 10.4, 100 mcg/mL
[11] = 55° C., 1 W, pH 11.5, 20 mcg/mL
[12] = 55° C., 2 W, pH 10.4, 20 mcg/mL
[13] = 55° C., 2 W, pH 10.4, 100 mcg/mL
[14] = 55° C., 2 W, pH 11.5, 20 mcg/mL
[15] = 55° C., 1 W, pH 9, HP-β-cyclodextrin 10 mg/mL

## N[C@@H](Cc1cc(I)c(Oc2cc(I)c(O)c(I)c2)c(I)c1)C(=O)[O-].[Na+] [Levothyroxine Na, 4-(4-hydroxy-3,5-diiodophenoxy)-3,5-diiodo-L-phenylalanine sodium]
[1]; 25° C., 2 M, pH 9.5, 20 mcg/mL
  % Liothyronine: 0.34%
  % largest unknown impurity: 0.11%
  % total impurities: 0.7%
[1]; [3]
  % Liothyronine: 0.17%
  % largest unknown impurity: 0.20%
  % total impurities: 0.6%
[1]; [4]
  % Liothyronine: 0.23%
  % largest unknown impurity: 0.11%
  % total impurities: 0.6%
[1]; [5]
  % Liothyronine: 0.34%
  % largest unknown impurity: 15.4%
  % total impurities: 19.6%
[1]; 40° C., 2 M, pH 9.5, 20 mcg/mL
  % Liothyronine: 1.00%
  % largest unknown impurity: 0.14%
  % total impurities: 1.44%
[1]; [6]
  % Liothyronine: 0.38%
  % largest unknown impurity: 0.22%
  % total impurities: 0.88%
[1]; [7]
  % Liothyronine: 0.49%
  % largest unknown impurity: 0.10%
  % total impurities: 0.8%
[1]; [8]
  % Liothyronine: 0.31%
  % largest unknown impurity: 9.2%
  % total impurities: 12.1%
[1]; 55° C., 1 W, pH 9.5, 20 mcg/mL
  % Liothyronine: 0.9%
  % largest unknown impurity: 0.09%
  % total impurities: 1.2%
[1]; [9]
  % Liothyronine: 0.2%
  % largest unknown impurity: 0.09%
  % total impurities: 0.5%
[1]; [10]
  % Liothyronine: 0.3%
  % largest unknown impurity: 0.11%
  % total impurities: 0.7%
[1]; [11]
  % Liothyronine: 0.1%
  % largest unknown impurity: 0.08%
  % total impurities: 0.4%
[1]; 55° C., 2 W, pH 9.5, 20 mcg/mL
  % Liothyronine: 1.9%
  % largest unknown impurity: 0.1%
  % total impurities: 2.0%
[1]; [12]
  % Liothyronine: 0.4%
  % largest unknown impurity: 0.1%
  % total impurities: 0.9%
[1]; [13]
  % Liothyronine: 0.8%
  % largest unknown impurity: 0.11%
  % total impurities: 1.1%
[1]; [14]
  % Liothyronine: 0.2%
  % largest unknown impurity: 0.1%
  % total impurities: 0.4%
[2]; 25° C., 3 M, pH 9.5
  % Liothyronine: 0.6%
  % largest unknown impurity: 0.46%
  % total impurities: 1.51%
[2]; 25° C., 3 M, pH 10
  % Liothyronine: 0.35%
  % largest unknown impurity: 0.11%
  % total impurities: 0.71%
[2]; 40° C., 3 M, pH 9.5
  % largest unknown impurity: 0.48%
  % total impurities: 2.66%
[2]; 40° C., 3 M, pH 10
  % largest unknown impurity: 0.16%
  % total impurities: 1.35%
[2]; 40° C., 4 W, pH 9.5
  % Liothyronine: 0.9%
  % largest unknown impurity: 0.12%
  % total impurities: 1.7%
[2]; 40° C., 4 W, pH 10
  % Liothyronine: 0.4%
  % largest unknown impurity: 0.12%
  % total impurities: 0.6%
[2]; 55° C., 1 W, pH 8
  % Liothyronine: 15.2%
  % largest unknown impurity: 1.59%
  % total impurities: 17.5%
[2]; [15]
  % Liothyronine: 2.7%
  % largest unknown impurity: 0.86%
  % total impurities: 4.0%
[2]; 55° C., 1 W, pH 9
  % Liothyronine: 2.7%
  % largest unknown impurity: 0.67%
  % total impurities: 3.6%
[2]; 55° C., 1 W, pH 9.5
  % Liothyronine: 1.2%
  % largest unknown impurity: 0.50%
  % total impurities: 2.2%
[2]; 55° C., 1 W, pH 10
  % Liothyronine: 0.6%
  % largest unknown impurity: 0.27%
  % total impurities: 1.5%
[2]; 55° C., 4 W, pH 9.5
  % largest unknown impurity: 0.09%
  % total impurities: 2.1%
[2]; 55° C., 4 W, pH 10
  % Liothyronine: 3.1%
  % largest unknown impurity: 0.55%
  % total impurities: 4.2%
